The values that follow come from PMC10353187, “Discovery of a new potent oxindole multi-kinase inhibitor among a series of designed 3-alkenyl-oxindoles with ancillary carbonic anhydrase inhibitory activity as antiproliferative agents” (BMC Chemistry, 2023).

Holding throughout (test): Z'-LYTE kinase inhibition assay (SelectScreen)
Format in all cases: biochemical

For assay [1], the target named is T1, FGFR 1 (Homo sapiens, UniProt P11362).
T1 construct: purchased Thermo Fischer Scientific (SelectScreen service)
T1 sequence (P11362 22-822): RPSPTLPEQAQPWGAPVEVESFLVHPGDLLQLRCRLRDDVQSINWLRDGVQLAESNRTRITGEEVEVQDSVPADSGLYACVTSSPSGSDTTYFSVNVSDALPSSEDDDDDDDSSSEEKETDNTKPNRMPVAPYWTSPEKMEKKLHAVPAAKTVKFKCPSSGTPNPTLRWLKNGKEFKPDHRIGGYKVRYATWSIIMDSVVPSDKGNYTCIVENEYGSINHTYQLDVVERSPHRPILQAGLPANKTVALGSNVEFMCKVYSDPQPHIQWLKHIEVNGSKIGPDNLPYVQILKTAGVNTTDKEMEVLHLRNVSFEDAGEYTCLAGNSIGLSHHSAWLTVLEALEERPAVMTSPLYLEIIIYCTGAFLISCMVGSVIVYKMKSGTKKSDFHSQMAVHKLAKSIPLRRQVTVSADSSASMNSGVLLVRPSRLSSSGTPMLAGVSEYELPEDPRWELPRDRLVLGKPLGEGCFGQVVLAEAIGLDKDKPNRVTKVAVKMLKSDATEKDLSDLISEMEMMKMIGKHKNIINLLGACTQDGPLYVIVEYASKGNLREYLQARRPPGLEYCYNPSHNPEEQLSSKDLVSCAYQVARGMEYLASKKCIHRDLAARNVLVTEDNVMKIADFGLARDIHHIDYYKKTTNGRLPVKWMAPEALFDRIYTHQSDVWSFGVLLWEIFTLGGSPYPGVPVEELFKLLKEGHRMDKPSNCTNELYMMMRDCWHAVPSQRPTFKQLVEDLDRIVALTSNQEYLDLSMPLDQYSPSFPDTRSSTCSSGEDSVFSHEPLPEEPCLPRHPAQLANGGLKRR
As for the experimental part: (§1) To test the potential kinase inhibitory activity of compound 15c, initial single dose testing was performed at 10 μM on a panel of kinases and their inhibition % were determined.
(§2) […]. Additional file 1; S3: In vitro biological activity).
(§3) The FGFR, VEGFR-2 and RET tyrosine kinase assays were carried out at Thermo Fischer Scientific, USA (www.thermofischer.com/selectscreen). (For further details see Additional file 1; S3: In vitro biological activity).
(§4) The FGFR, VEGFR-2 and RET tyrosine kinase assays were performed at Thermo Fischer Scientific, USA (www.thermofischer.com/selectscreen). The assay was performed to evaluate the inhibitory activity of the designed compound applying the Z'-LYTE biochemical assay employing a fluorescence-based, coupled-enzyme format based on the differential sensitivity of phosphorylate and non-phosphorylate peptides to the proteolytic cleavage. The peptide substrate is characterized with two fluorophores, one at each end, that make up a FRET pair ^9.
(§5) The Z´-LYTE biochemical assay employs a fluorescence-based, coupled-enzyme format and is based on the differential sensitivity of phosphorylated and non-phosphorylated peptides to proteolytic cleavage. The peptide substrate is labeled with two fluorophores—one at each end—that make up a FRET pair. In the primary reaction, the kinase transfers the gamma-phosphate of ATP to a single tyrosine, serine or threonine residue in a synthetic FRET-peptide. In the secondary reaction, a site-specific protease recognizes and cleaves non-phosphorylated FRET-peptides. Phosphorylation of FRET-peptides suppresses cleavage by the Development Reagent. Cleavage disrupts FRET between the donor (i.e., coumarin) and acceptor (i.e., fluorescein) fluorophores on the FRET-peptide, whereas uncleaved, phosphorylated FRET-peptides maintain FRET. A ratiometric method, which calculates the ratio (the Emission Ratio) of donor emission to acceptor emission after excitation of the donor fluorophore at 400 nm, is used to quantitate reaction progress, as shown in the equation below. A significant benefit of this ratiometric method for quantitating reaction progress is the elimination of wellto-well variations in FRET-peptide concentration and signal intensities. […]. Both cleaved and uncleaved FRET-peptides contribute to the fluorescence signals and therefore to the Emission Ratio. The extent of phosphorylation of the FRET-peptide can be calculated from the Emission Ratio. The Emission Ratio will remain low if the FRET-peptide is phosphorylated (i.e., no kinase inhibition) and will be high if the FRET-peptide is non-phosphorylated (i.e., kinase inhibition).
(§6) Test Compounds the Test Compounds are screened in 1% DMSO (final) in the well. For 10 point titrations, 3-fold serial dilutions are conducted from the starting concentration of the customer’s choosing. Peptide/Kinase Mixtures All Peptide/Kinase Mixtures are diluted to a 2X working concentration in the appropriate Kinase Buffer (see section Kinase Specific Assay Conditions for a complete description). ATP Solution All ATP Solutions are diluted to a 4X working concentration in Kinase Buffer (50 mM HEPES pH 7.5, 0.01% BRIJ-35, 10 mM MgCl2, 1 mM EGTA). ATP Km apparent is previously determined using a Z´-LYTE assay.

Assay [2] addresses T2, VEGFR 2(KDR) (Homo sapiens, UniProt P35968).
T2 construct: purchased Thermo Fischer Scientific (SelectScreen service)
As for the experimental part:
as §1, §2, §3, §4, §5, §6

Assay [3] deals with T3, RET (Homo sapiens, UniProt P07949).
T3 construct: purchased Thermo Fischer Scientific (SelectScreen service)
T3 sequence (P07949 29-1114): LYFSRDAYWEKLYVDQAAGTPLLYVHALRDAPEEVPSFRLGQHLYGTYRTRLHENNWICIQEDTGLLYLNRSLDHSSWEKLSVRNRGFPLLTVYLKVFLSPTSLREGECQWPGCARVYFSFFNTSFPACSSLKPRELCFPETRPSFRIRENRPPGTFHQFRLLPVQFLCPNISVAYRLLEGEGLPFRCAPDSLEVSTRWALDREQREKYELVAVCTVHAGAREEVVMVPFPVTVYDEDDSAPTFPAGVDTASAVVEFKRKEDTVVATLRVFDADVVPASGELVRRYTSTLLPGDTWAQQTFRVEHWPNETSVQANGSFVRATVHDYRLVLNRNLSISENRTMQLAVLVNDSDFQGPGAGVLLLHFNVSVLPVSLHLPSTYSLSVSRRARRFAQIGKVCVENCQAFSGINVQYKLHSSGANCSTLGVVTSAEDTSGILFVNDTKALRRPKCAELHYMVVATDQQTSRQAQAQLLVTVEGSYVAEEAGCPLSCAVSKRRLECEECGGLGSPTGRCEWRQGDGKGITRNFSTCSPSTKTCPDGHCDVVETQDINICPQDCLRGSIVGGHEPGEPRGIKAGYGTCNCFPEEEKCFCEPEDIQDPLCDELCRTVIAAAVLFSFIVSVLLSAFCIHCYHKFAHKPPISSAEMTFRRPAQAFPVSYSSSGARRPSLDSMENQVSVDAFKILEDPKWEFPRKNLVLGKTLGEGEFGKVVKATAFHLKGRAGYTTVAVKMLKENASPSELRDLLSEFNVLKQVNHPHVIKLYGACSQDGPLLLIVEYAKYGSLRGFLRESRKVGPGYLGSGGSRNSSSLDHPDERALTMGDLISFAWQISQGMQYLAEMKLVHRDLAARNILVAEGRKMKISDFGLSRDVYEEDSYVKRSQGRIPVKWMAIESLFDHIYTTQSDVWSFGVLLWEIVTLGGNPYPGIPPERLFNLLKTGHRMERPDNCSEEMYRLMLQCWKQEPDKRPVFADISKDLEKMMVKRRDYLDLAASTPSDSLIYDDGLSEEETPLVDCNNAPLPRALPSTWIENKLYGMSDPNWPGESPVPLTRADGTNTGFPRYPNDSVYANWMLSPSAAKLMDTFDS
As for the experimental part:
as §1, §2, §3, §4, §5, §6

Assay [4] deals with T4, Kit (Homo sapiens, UniProt P10721).
T4 construct: purchased Thermo Fischer Scientific (SelectScreen service)
T4 sequence (P10721 26-976): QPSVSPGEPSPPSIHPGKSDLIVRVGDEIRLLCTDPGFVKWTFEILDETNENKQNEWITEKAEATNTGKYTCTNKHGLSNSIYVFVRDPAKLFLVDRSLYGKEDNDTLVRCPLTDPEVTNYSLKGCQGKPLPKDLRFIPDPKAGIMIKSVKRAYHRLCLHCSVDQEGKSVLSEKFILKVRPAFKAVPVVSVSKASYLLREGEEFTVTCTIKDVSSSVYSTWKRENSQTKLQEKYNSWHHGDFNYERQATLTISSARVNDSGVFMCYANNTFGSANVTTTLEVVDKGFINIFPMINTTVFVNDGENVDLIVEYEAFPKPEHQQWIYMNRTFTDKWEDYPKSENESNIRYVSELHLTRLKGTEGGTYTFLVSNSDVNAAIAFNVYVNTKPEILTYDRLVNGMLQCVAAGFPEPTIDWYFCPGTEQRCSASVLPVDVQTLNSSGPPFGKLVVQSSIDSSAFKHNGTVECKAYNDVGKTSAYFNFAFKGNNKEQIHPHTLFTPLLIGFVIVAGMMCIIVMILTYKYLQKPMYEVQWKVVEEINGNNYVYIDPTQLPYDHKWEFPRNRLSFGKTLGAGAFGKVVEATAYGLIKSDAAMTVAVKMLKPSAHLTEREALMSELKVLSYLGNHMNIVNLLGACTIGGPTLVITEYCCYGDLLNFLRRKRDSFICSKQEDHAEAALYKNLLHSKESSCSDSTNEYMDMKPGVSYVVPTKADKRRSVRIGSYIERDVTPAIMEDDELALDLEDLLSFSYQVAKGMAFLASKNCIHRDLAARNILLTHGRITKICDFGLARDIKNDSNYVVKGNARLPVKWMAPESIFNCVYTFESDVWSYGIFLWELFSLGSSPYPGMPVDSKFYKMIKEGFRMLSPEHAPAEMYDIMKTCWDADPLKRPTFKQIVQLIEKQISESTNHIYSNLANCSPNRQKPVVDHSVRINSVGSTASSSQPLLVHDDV
As for the experimental part: as §1, §3, §4, §5, §6

Assay [5] concerns the target T5, BRAF (Homo sapiens, UniProt P15056).
T5 construct: purchased Thermo Fischer Scientific (SelectScreen service)
As for the experimental part:
as §1, §3, §4, §5, §6

The target in assay [6] is T6, VEGFR 1(FLT1) (Homo sapiens, UniProt P17948).
T6 construct: purchased Thermo Fischer Scientific (SelectScreen service)
As for the experimental part: as §1, §3, §4, §5, §6

The target in assay [7] is T7, c-Met (Homo sapiens, UniProt P08581).
T7 construct: purchased Thermo Fischer Scientific (SelectScreen service)
As for the experimental part: as §1, §3, §4, §5, §6

Assay [8] concerns the target T8, PDGFRA (PDGFR alpha) (Homo sapiens, UniProt P16234).
T8 construct: purchased Thermo Fischer Scientific (SelectScreen service)
As for the experimental part:
as §1, §3, §4, §5, §6

The mark [9] stands for this setting: five concentrations 10 nM–100 μM.

T2 sequence (P35968 20-1356): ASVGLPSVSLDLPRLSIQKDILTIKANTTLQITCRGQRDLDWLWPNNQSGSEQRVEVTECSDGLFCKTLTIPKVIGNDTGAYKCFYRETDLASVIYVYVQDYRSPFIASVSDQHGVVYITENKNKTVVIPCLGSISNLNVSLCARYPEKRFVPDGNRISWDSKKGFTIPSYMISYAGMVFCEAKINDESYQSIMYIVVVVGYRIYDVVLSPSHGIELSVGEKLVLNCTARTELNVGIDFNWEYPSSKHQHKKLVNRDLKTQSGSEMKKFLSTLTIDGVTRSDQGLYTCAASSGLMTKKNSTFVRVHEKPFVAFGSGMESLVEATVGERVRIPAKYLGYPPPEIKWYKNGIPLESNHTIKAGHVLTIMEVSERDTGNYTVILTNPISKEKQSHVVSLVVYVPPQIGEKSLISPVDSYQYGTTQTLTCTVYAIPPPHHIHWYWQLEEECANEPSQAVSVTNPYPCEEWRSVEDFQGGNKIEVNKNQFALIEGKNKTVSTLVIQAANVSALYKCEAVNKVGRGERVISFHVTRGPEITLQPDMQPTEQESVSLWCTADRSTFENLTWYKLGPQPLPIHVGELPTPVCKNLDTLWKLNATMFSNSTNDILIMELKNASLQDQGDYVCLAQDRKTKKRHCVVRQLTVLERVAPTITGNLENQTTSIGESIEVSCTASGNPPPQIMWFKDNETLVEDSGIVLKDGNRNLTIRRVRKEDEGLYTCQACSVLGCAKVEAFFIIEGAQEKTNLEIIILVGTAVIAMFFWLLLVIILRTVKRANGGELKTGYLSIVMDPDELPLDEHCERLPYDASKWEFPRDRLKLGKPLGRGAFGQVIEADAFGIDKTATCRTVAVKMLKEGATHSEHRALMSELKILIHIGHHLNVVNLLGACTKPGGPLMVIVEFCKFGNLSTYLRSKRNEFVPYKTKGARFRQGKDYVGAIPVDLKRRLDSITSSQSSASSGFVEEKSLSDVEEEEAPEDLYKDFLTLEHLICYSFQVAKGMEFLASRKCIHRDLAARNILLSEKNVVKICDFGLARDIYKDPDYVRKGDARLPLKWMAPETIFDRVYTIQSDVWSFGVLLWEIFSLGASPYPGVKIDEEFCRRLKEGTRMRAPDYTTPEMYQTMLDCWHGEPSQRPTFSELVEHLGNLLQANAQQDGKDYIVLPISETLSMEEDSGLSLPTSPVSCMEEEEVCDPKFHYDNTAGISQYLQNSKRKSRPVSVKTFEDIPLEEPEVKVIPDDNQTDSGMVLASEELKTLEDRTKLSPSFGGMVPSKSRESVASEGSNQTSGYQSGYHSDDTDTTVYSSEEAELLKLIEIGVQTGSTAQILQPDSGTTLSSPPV
T5 sequence (P15056 whole entry): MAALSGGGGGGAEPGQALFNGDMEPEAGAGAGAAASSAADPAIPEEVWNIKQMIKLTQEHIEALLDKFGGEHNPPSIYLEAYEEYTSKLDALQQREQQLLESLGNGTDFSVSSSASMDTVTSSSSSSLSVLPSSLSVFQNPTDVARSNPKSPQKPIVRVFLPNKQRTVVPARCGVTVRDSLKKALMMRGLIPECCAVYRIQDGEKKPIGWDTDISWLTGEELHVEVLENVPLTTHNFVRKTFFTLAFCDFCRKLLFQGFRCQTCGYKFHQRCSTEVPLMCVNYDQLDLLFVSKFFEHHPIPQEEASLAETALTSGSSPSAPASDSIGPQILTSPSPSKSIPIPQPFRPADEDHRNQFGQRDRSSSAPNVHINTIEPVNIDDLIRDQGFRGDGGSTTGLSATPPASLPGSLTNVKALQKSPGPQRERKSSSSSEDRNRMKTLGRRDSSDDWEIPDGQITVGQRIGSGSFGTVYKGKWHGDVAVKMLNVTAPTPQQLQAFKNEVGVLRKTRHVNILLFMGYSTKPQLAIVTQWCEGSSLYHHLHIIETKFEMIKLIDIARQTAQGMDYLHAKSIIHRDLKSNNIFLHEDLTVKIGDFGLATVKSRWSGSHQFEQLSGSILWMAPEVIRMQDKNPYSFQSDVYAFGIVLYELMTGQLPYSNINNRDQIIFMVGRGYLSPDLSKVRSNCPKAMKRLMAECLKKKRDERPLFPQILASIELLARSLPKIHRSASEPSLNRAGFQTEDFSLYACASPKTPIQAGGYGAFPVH

One may read the inhibition as the drop in the measured response relative to a control, in per cent. A higher inhibition goes with strong suppression. The IC50 is the concentration at which inhibition is half-maximal. A low value points to higher potency. Turning to `O=C(Nc1ccc(NC=C2C(=O)Nc3ccccc32)cc1)Nc1nccs1` [Compound 15c, 1-{4-[((2-Oxoindolin-3-ylidene)methyl)amino]phenyl}-3-(thiazol-2-yl)urea], the inhibition at 10 µM was determined as 74% in assay [1] (10 uM); 73% in assay [2] (10 uM); 74% in assay [3] (10 uM); 31% in assay [4]; 69% in assay [5]; 40% in assay [6]. The inhibition at 10 µM in assay [7] was found to be 62%; in assay [8], 59%. Besides, the half-maximal inhibitory concentration (IC50) in assay [1] (setting [9]) was 1.29 µM; in assay [2] (setting [9]), 0.117 µM; in assay [3] (setting [9]), 1.19 µM.
